Assays:
Type in all cases: in vivo
Scirpus juncoides [1] = experiment: Test Example 1: herbicidal activity, application before weed generation in submerged conditions (symbol B); conditions: application herbicide amount 320 g/ha
Summary of the method: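 Weed control was rated three weeks after treatment on a 0–5 scale, from 5% or lower up to 90% or more. Pre-emergence water-surface application of diluted emulsion at a predetermined rate was made on the day of sowing, in flooded (4 cm water) pots containing rice seedlings, kept at 25–30 °C under glass.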

[2] = test system: Echinochloa oryzacola Vasing.; experiment: Test Example 2: herbicidal activity, application during weed generation in submerged conditions (symbol A); conditions: Table 23; application herbicide amount 320 g/ha; grade 0-5 by criteria of Test Example 1
Summary of the method: (§1)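 Scoring of herbicidal effect took place 3 weeks after treatment, using the criteria of the earlier test. Treatment was water-surface application of diluted emulsifiable compound at a set dose. Plants were at one- to two-leaf stage in submerged alluvial soil (4 cm depth), greenhouse 25-30° C.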

Scirpus juncoides [3] = experiment: Test Example 2: herbicidal activity, application during weed generation in submerged conditions (symbol B); conditions: Table 23; application herbicide amount 320 g/ha; grade 0-5 by criteria of Test Example 1
Summary of the method: as §1

[4] = test system: Echinochloa crus-galli var. crus-galli; experiment: Test Example 3: herbicidal effect by foliage application, Wagner pot (symbol H); conditions: application herbicide amount 320 g/ha
Summary of the method: (§2)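 Foliar spray of a water-diluted emulsion at a predetermined herbicide amount, applied to 14-day-old plants. Seedlings were raised in flooded alluvial soil (0.1–0.5 cm water) at 25–30 °C in a greenhouse. Injury was rated after 3 weeks against fixed criteria.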

Setaria viridis = experiment: Test Example 4: herbicidal effect by soil treatment (symbol G); conditions: for G: Setaria viridis, herbicidal effect grade: 320 g/ha
Summary of the method: (§3)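 Seeds were sown in sterilized diluvial soil, covered with about 1.5 cm of soil, and the soil surface was sprayed with a water-diluted emulsion of the compound at a predetermined rate. Plants grew in a greenhouse at 25° C. to 30° C.; effects were scored visually 3 weeks after application.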

Avena fatua = experiment: Test Example 4: herbicidal effect by soil treatment (symbol I); conditions: for I: Avena fatua, herbicidal effect grade: 320 g/ha
Summary of the method: as §3

Alopecurus myosuroides [5] = experiment: Test Example 4: herbicidal effect by soil treatment (symbol J); conditions: for J: Alopecurus myosuroides, herbicidal effect grade: 320 g/ha
Summary of the method: as §3

Abutilon theophrasti = experiment: Test Example 4: herbicidal effect by soil treatment (symbol M); conditions: for M: Abutilon theophrasti, herbicidal effect grade: 320 g/ha
Summary of the method: as §3

Chenopodium album = experiment: Test Example 4: herbicidal effect by soil treatment (symbol O); conditions: for O: Chenopodium album, herbicidal effect grade: 320 g/ha
Text: Herbicidal Effect Test by Soil Treatment
Sterilized diluvial soil was placed in a plastic box having a length of 21 cm, a width of 13 cm, and a depth of 7 cm. Each of the seeds of Digitaria ciliaris, Setaria viridis, Echinochloa crus-galli var. crus-galli, Avena fatua, Alopecurus myosuroides, Lolium multiflorum Lam., Apera spica-venti, Abutilon theophrasti, Amaranthus retroflexus, Chenopodium album, Stellaria media, Galium spurium, Veronica persica, corn, soybean, rice, wheat, beet, and rapeseed was sowed in a spot-like manner and was covered with the soil of a thickness of about 1.5 cm. Subsequently, the emulsion agent of the compound present invention prepared in accordance with Formulation Example 2 was diluted with water so as to be a predetermined herbicide amount and the diluted emulsion agent was uniformly applied to the surface of the soil with a small-size spray. The plastic box was placed in a greenhouse of 25° C. to 30° C. to grow plant. 3 weeks later from the herbicide application, the effect to each plant was investigated in accordance with the criteria of Test Example 1.

Veronica persica = experiment: Test Example 4: herbicidal effect by soil treatment (symbol R); conditions: 320 g/ha
Summary of the method: as §3

Alopecurus myosuroides [6] = experiment: Test Example 5: herbicidal effect by foliage application, plastic box (symbol J); conditions: 320 g/ha, 3 weeks after application
Summary of the method: (§4)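 Leaf-applied emulsion, water-diluted to a preset herbicide dose, on two-week-old seedlings raised in a 25° C. to 30° C. greenhouse; injury rated at 3 weeks using earlier criteria.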

Apera spica-venti [7] = experiment: Test Example 5: herbicidal effect by foliage application, plastic box (symbol L); conditions: 320 g/ha, 3 weeks after application
Summary of the method: as §4

corn = experiment: Test Example 5: effect on crop by foliage application, plastic box (symbol c); conditions: 320 g/ha, 3 weeks after application
Summary of the method: (§5)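 Greenhouse test at 25° C. to 30° C. Seeds of crops and weeds were spot-sown in boxes of sterilized diluvial soil under roughly 1.5 cm soil cover, then grown for foliage treatment.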

rapeseed = experiment: Test Example 5: effect on crop by foliage application, plastic box (symbol g); conditions: 320 g/ha, 3 weeks after application
Summary of the method: as §5

Cyperus difformis = experiment: Test Example 3: herbicidal effect by foliage application, Wagner pot (symbol E); conditions: application herbicide amount 320 g/ha
Summary of the method: as §2

Apera spica-venti [8] = experiment: Test Example 4: herbicidal effect by soil treatment (symbol L); conditions: application herbicide amount 320 g/ha
Summary of the method: as §3

[9] = application herbicide amount 320 g/ha

Row | SMILES | Herbicidal effect grade, B: Scirpus juncoides (Scirpus juncoides [1]) | Herbicidal effect grade, A: Echinochloa oryzacola Vasing. [2] | Herbicidal effect grade, B: Scirpus juncoides (Scirpus juncoides [3]) | herbicidal effect on H (Echinochloa crus-galli var. crus-galli), grade 0-5 [4] | G: Setaria viridis, herbicidal effect grade (Setaria viridis) | I: Avena fatua, herbicidal effect grade (Avena fatua) | J: Alopecurus myosuroides, herbicidal effect grade (Alopecurus myosuroides [5]) | M: Abutilon theophrasti, herbicidal effect grade (Abutilon theophrasti) | O: Chenopodium album, herbicidal effect grade (Chenopodium album) | R: Veronica persica, herbicidal effect grade (Veronica persica) | J: Alopecurus myosuroides, herbicidal effect (criteria 0-5) (Alopecurus myosuroides [6]) | L: Apera spica-venti, herbicidal effect (criteria 0-5) (Apera spica-venti [7]) | c: corn, effect on crop (criteria 0-5) (corn) | g: rapeseed, effect on crop (criteria 0-5) (rapeseed) | other results
1 | CC(CC1CC(O)=C(c2c(C)cc(C)cc2C)C1=O)=NOCc1ccc(Cl)cc1 (centres unmarked) [1-137] | 5 (Herbicidal ratio of 90% or more (almost completely withered)) | 4 (Herbicidal ratio of 70% or higher and lower than 90%) | 4 (Herbicidal ratio of 70% or higher and lower than 90%) | 5 (Herbicidal ratio of 90% or more (almost completely withered)) | 5 (Herbicidal ratio of 90% or more (almost completely withered)) | 2 (Herbicidal ratio of 20% or higher and lower than 40%) | 5 (Herbicidal ratio of 90% or more (almost completely withered)) | 0 (Herbicidal ratio of 5% or lower (almost no effect)) | 0 (Herbicidal ratio of 5% or lower (almost no effect)) | 0 (Herbicidal ratio of 5% or lower (almost no effect)) | 5 (Herbicidal ratio of 90% or more (almost completely withered)) | 5 (Herbicidal ratio of 90% or more (almost completely withered)) | 3 (Herbicidal ratio of 40% or higher and lower than 70%) | 4 (Herbicidal ratio of 70% or higher and lower than 90%) | –
2 | CC(CC1CC(O)=C(c2c(C)cc(C)cc2C)C1=O)=NOCc1ccc(C(F)(F)F)cc1 (centres unmarked) [1-138] | 5 (Herbicidal ratio of 90% or more (almost completely withered)) | 3 (Herbicidal ratio of 40% or higher and lower than 70%) | 4 (Herbicidal ratio of 70% or higher and lower than 90%) | 3 (Herbicidal ratio of 40% or higher and lower than 70%) | 4 (Herbicidal ratio of 70% or higher and lower than 90%) | 0 (Herbicidal ratio of 5% or lower (almost no effect)) | 5 (Herbicidal ratio of 90% or more (almost completely withered)) | 0 (Herbicidal ratio of 5% or lower (almost no effect)) | 0 (Herbicidal ratio of 5% or lower (almost no effect)) | 0 (Herbicidal ratio of 5% or lower (almost no effect)) | 5 (Herbicidal ratio of 90% or more (almost completely withered)) | 5 (Herbicidal ratio of 90% or more (almost completely withered)) | 2 (Herbicidal ratio of 20% or higher and lower than 40%) | 4 (Herbicidal ratio of 70% or higher and lower than 90%) | –
3 | CC(CC1CC(O)=C(c2c(C)cc(C)cc2C)C1=O)=NOCc1ccc(F)cc1 (centres unmarked) [1-136] | 5 (Herbicidal ratio of 90% or more (almost completely withered)) | 4 (Herbicidal ratio of 70% or higher and lower than 90%) | 4 (Herbicidal ratio of 70% or higher and lower than 90%) | 5 (Herbicidal ratio of 90% or more (almost completely withered)) | 5 (Herbicidal ratio of 90% or more (almost completely withered)) | 3 (Herbicidal ratio of 40% or higher and lower than 70%) | 5 (Herbicidal ratio of 90% or more (almost completely withered)) | – | 0 (Herbicidal ratio of 5% or lower (almost no effect)) | 0 (Herbicidal ratio of 5% or lower (almost no effect)) | 5 (Herbicidal ratio of 90% or more (almost completely withered)) | 5 (Herbicidal ratio of 90% or more (almost completely withered)) | 3 (Herbicidal ratio of 40% or higher and lower than 70%) | 4 (Herbicidal ratio of 70% or higher and lower than 90%) | –
4 | CON=C(C)CC1CC(OC(=O)C(C)(C)C)=C(c2c(C)cc(C)cc2C)C1=O (centres unmarked) [1-004, 2-mesityl-4-{2-(methoxyimino)propyl}-3-oxocyclopent-1-en-1-yl pivalate] | 5 (Herbicidal ratio of 90% or more (almost completely withered)) | 5 (Herbicidal ratio of 90% or more (almost completely withered)) | 4 (Herbicidal ratio of 70% or higher and lower than 90%) | 5 (Herbicidal ratio of 90% or more (almost completely withered)) | – | – | – | – | – | – | – | – | – | – | herbicidal effect on E, grade 0-5 (Cyperus difformis): 5 (Herbicidal ratio of 90% or more (almost completely withered)); G (Setaria viridis) herbicidal effect grade (Setaria viridis; [9]): 5 (Herbicidal ratio of 90% or more (almost completely withered)); I (Avena fatua) herbicidal effect grade (Avena fatua; [9]): 5 (Herbicidal ratio of 90% or more (almost completely withered)); J (Alopecurus myosuroides) herbicidal effect grade (Alopecurus myosuroides [5]; [9]): 5 (Herbicidal ratio of 90% or more (almost completely withered)); L (Apera spica-venti) herbicidal effect grade (Apera spica-venti [8]): 5 (Herbicidal ratio of 90% or more (almost completely withered)); M (Abutilon theophrasti) herbicidal effect grade (Abutilon theophrasti; [9]): 5 (Herbicidal ratio of 90% or more (almost completely withered)); O (Chenopodium album) herbicidal effect grade (Chenopodium album; [9]): 0 (Herbicidal ratio of 5% or lower (almost no effect)); J: Alopecurus myosuroides, herbicidal effect grade (Alopecurus myosuroides [6]): 5 (Herbicidal ratio of 90% or more (almost completely withered)); L: Apera spica-venti, herbicidal effect grade (Apera spica-venti [7]): 5 (Herbicidal ratio of 90% or more (almost completely withered)); c: corn, effect on crop grade (corn): 5 (Herbicidal ratio of 90% or more (almost completely withered)); g: rapeseed, effect on crop grade (rapeseed): 4 (Herbicidal ratio of 70% or higher and lower than 90%)

— US11000033B2, “Ketone or oxime compound, and herbicide” (NISSAN CHEMICAL CORPORATION, priority 2014, dated 2021)
